PubChem BioAssay (NCI)
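Cultured in 96-well plates, cells were exposed to test compound for 48 hours across five concentrations. GI50: concentration for 50% inhibition of growth. At the TGI there is no net growth.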

How the values were obtained:
Assay in all cases: NCI-60 cell line screen, 48 h
786-0 renal = tested on: 786-0 renal
A498 renal = tested on: A498 renal
A549 NSCLC = tested on: A549 NSCLC
ACHN renal = tested on: ACHN renal
BT-549 breast = tested on: BT-549 breast
CAKI-1 renal = tested on: CAKI-1 renal
CCRF-CEM leukemia = tested on: CCRF-CEM leukemia
COLO 205 colon = tested on: COLO 205 colon
DU-145 prostate = tested on: DU-145 prostate
EKVX NSCLC = tested on: EKVX NSCLC
HCC-2998 colon = tested on: HCC-2998 colon
HCT-116 colon = tested on: HCT-116 colon
HCT-15 colon = tested on: HCT-15 colon
HL-60(TB) leukemia = tested on: HL-60(TB) leukemia
HOP-62 NSCLC = tested on: HOP-62 NSCLC
HOP-92 NSCLC = tested on: HOP-92 NSCLC
HS 578T breast = tested on: HS 578T breast
HT29 colon = tested on: HT29 colon
IGROV1 ovarian = tested on: IGROV1 ovarian
K-562 leukemia = tested on: K-562 leukemia
KM12 colon = tested on: KM12 colon
LOX IMVI melanoma = tested on: LOX IMVI melanoma
M14 melanoma = tested on: M14 melanoma
MALME-3M melanoma = tested on: MALME-3M melanoma
MCF7 breast = tested on: MCF7 breast
MDA-MB-231 breast = tested on: MDA-MB-231 breast
MDA-MB-435 = tested on: MDA-MB-435
MOLT-4 leukemia = tested on: MOLT-4 leukemia
NCI-H226 lung = tested on: NCI-H226 lung
NCI-H23 lung = tested on: NCI-H23 lung
NCI-H460 lung = tested on: NCI-H460 lung
NCI-H522 lung = tested on: NCI-H522 lung
NCI/ADR-RES ovarian = tested on: NCI/ADR-RES ovarian
OVCAR-3 ovarian = tested on: OVCAR-3 ovarian
OVCAR-4 ovarian = tested on: OVCAR-4 ovarian
OVCAR-5 ovarian = tested on: OVCAR-5 ovarian
OVCAR-8 ovarian = tested on: OVCAR-8 ovarian
PC-3 prostate = tested on: PC-3 prostate
RPMI-8226 leukemia = tested on: RPMI-8226 leukemia
RXF 393 renal = tested on: RXF 393 renal
SF-268 CNS = tested on: SF-268 CNS
SF-295 CNS = tested on: SF-295 CNS
SF-539 CNS = tested on: SF-539 CNS
SK-MEL-2 melanoma = tested on: SK-MEL-2 melanoma
SK-MEL-28 melanoma = tested on: SK-MEL-28 melanoma
SK-MEL-5 melanoma = tested on: SK-MEL-5 melanoma
SK-OV-3 ovarian = tested on: SK-OV-3 ovarian
SN12C renal = tested on: SN12C renal
SNB-19 CNS = tested on: SNB-19 CNS
SNB-75 CNS = tested on: SNB-75 CNS
SW-620 colon = tested on: SW-620 colon
T-47D breast = tested on: T-47D breast
TK-10 renal = tested on: TK-10 renal
U251 CNS = tested on: U251 CNS
UACC-62 melanoma = tested on: UACC-62 melanoma
UO-31 renal = tested on: UO-31 renal

N#Cc1c(-c2ccc(Cl)cc2)csc1NC(=O)Nc1ccc(Cl)c(C(F)(F)F)c1
GI50 (786-0 renal): 3180 nM | TGI (786-0 renal): 13400 nM | GI50 (A498 renal): 536 nM | TGI (A498 renal): 5680 nM | GI50 (A549 NSCLC): 630 nM | TGI (A549 NSCLC): 12400 nM | GI50 (ACHN renal): 234 nM | TGI (ACHN renal): 5180 nM | GI50 (BT-549 breast): 1210 nM | TGI (BT-549 breast): 4540 nM | GI50 (CAKI-1 renal): 691 nM | TGI (CAKI-1 renal): 5570 nM | GI50 (CCRF-CEM leukemia): 243 nM | TGI (CCRF-CEM leukemia): 7670 nM | GI50 (COLO 205 colon): 895 nM | TGI (COLO 205 colon): 2580 nM | GI50 (DU-145 prostate): 527 nM | TGI (DU-145 prostate): 11200 nM | GI50 (EKVX NSCLC): 385 nM | TGI (EKVX NSCLC): > 50000 nM | GI50 (HCC-2998 colon): 1330 nM | TGI (HCC-2998 colon): 17100 nM | GI50 (HCT-116 colon): 224 nM | TGI (HCT-116 colon): 6420 nM | GI50 (HCT-15 colon): 208 nM | TGI (HCT-15 colon): 5400 nM | GI50 (HL-60(TB) leukemia): 793 nM | TGI (HL-60(TB) leukemia): 2110 nM | GI50 (HOP-62 NSCLC): 1010 nM | TGI (HOP-62 NSCLC): 4420 nM | GI50 (HOP-92 NSCLC): 222 nM | TGI (HOP-92 NSCLC): 2090 nM | GI50 (HS 578T breast): 1360 nM | TGI (HS 578T breast): 8240 nM | GI50 (HT29 colon): 560 nM | TGI (HT29 colon): 3540 nM | GI50 (IGROV1 ovarian): 626 nM | TGI (IGROV1 ovarian): 18700 nM | GI50 (K-562 leukemia): 177 nM | TGI (K-562 leukemia): 6270 nM | GI50 (KM12 colon): 251 nM | TGI (KM12 colon): 6960 nM | GI50 (LOX IMVI melanoma): 1140 nM | TGI (LOX IMVI melanoma): 7380 nM | GI50 (M14 melanoma): 1140 nM | TGI (M14 melanoma): 8350 nM | GI50 (MALME-3M melanoma): 1010 nM | TGI (MALME-3M melanoma): 3940 nM | GI50 (MCF7 breast): 229 nM | TGI (MCF7 breast): 11100 nM | GI50 (MDA-MB-231 breast): 995 nM | TGI (MDA-MB-231 breast): 6240 nM | GI50 (MDA-MB-435): 1490 nM | TGI (MDA-MB-435): > 50000 nM | GI50 (MOLT-4 leukemia): 605 nM | TGI (MOLT-4 leukemia): 5060 nM | GI50 (NCI-H226 lung): 1120 nM | TGI (NCI-H226 lung): 12400 nM | GI50 (NCI-H23 lung): 201 nM | TGI (NCI-H23 lung): 16700 nM | GI50 (NCI-H460 lung): 209 nM | TGI (NCI-H460 lung): 1200 nM | GI50 (NCI-H522 lung): 121 nM | TGI (NCI-H522 lung): 550 nM | GI50 (NCI/ADR-RES ovarian): 536 nM | TGI (NCI/ADR-RES ovarian): 13400 nM | GI50 (OVCAR-3 ovarian): 262 nM | TGI (OVCAR-3 ovarian): 1470 nM | GI50 (OVCAR-4 ovarian): 691 nM | TGI (OVCAR-4 ovarian): 3460 nM | GI50 (OVCAR-5 ovarian): 4770 nM | TGI (OVCAR-5 ovarian): > 50000 nM | GI50 (OVCAR-8 ovarian): 388 nM | TGI (OVCAR-8 ovarian): 15700 nM | GI50 (PC-3 prostate): 161 nM | TGI (PC-3 prostate): 2040 nM | GI50 (RPMI-8226 leukemia): 153 nM | TGI (RPMI-8226 leukemia): 1140 nM | GI50 (RXF 393 renal): 2050 nM | TGI (RXF 393 renal): 17400 nM | GI50 (SF-268 CNS): 1290 nM | TGI (SF-268 CNS): 21300 nM | GI50 (SF-295 CNS): 326 nM | TGI (SF-295 CNS): 1870 nM | GI50 (SF-539 CNS): 1500 nM | TGI (SF-539 CNS): 6960 nM | GI50 (SK-MEL-2 melanoma): 872 nM | TGI (SK-MEL-2 melanoma): 7350 nM | GI50 (SK-MEL-28 melanoma): 1850 nM | TGI (SK-MEL-28 melanoma): 40100 nM | GI50 (SK-MEL-5 melanoma): 639 nM | TGI (SK-MEL-5 melanoma): 3700 nM | GI50 (SK-OV-3 ovarian): 2490 nM | TGI (SK-OV-3 ovarian): 14400 nM | GI50 (SN12C renal): 348 nM | TGI (SN12C renal): > 50000 nM | GI50 (SNB-19 CNS): 1270 nM | TGI (SNB-19 CNS): 35200 nM | GI50 (SNB-75 CNS): 1360 nM | TGI (SNB-75 CNS): 7720 nM | GI50 (SW-620 colon): 255 nM | TGI (SW-620 colon): 2950 nM | GI50 (T-47D breast): 106 nM | TGI (T-47D breast): 696 nM | GI50 (TK-10 renal): 757 nM | TGI (TK-10 renal): 11100 nM | GI50 (U251 CNS): 607 nM | TGI (U251 CNS): 1910 nM | GI50 (UACC-62 melanoma): 326 nM | TGI (UACC-62 melanoma): 8640 nM | GI50 (UO-31 renal): 1470 nM | TGI (UO-31 renal): > 50000 nM
